A word on the Km: it is the substrate concentration at which the rate is half of its maximum.

This passage reports Km results from article PMC8790579, “Activity-Based Protein Profiling for the Identification of Novel Carbohydrate-Active Enzymes Involved in Xylan Degradation in the Hyperthermophilic Euryarchaeon Thermococcus sp. Strain 2319x1E” (Frontiers in Microbiology, 2022).

One assay relates to T1, EGIDFPOO_00532.
T1 construct: N-terminal 6xHis-tag, pET-28b(+) NheI/XhoI, E. coli Rosetta; primers encode N-term MLVFPDSFL and C-term KYGLPEL
The experiment in a line: nitrophenol release, absorbance. The format is biochemical, Thermococcus sp. 2319x1E. Conditions: pH 8.0, 100°C; refolding buffer with 2 M urea, 10% sucrose.

The test system of a further assay is T2, EGIDFPOO_00674.
T2 construct: C-terminal 6xHis-tag, pET-28b(+) NcoI/EcoRI, E. coli Rosetta; Ni-IDA purified; primers encode N-term MGYQKFGYHFHA and C-term NGASIGPGF before HHHHHH; GH57 domain 52-300, predicted catalytic E153/D253
The experiment in a line: nitrophenol release, absorbance. The format is biochemical, Thermococcus sp. 2319x1E. Conditions: pH 8.0 (50 mM Tris-HCl), 100°C.

With `O=[N+]([O-])c1ccccc1O[C@@H]1O[C@H](CO)[C@H](O)[C@H](O)[C@H]1O` [ONPG], the Km in the assay on EGIDFPOO_00532 came to 6.23 mM.
With `CC(=O)Oc1ccc([N+](=O)[O-])cc1` [PNPA], the Km in the assay on EGIDFPOO_00674 was determined as 2.57 mM.
For `O=[N+]([O-])c1ccc(O[C@@H]2O[C@H](CO)[C@@H](O)[C@H](O)[C@H]2O)cc1` [PNPG], in the assay on EGIDFPOO_00532, the Km is 0.18 mM.
In the case of `O=[N+]([O-])c1ccc(O[C@@H]2OC[C@@H](O)[C@H](O)[C@H]2O)cc1` [PNPX], the Michaelis constant (Km) in the assay on EGIDFPOO_00532 was determined as 4.38 mM.
